From patent US20090298942A1, “ANIMAL COMPOSITION” (priority 2002, published 2009) come the findings set out here.

The experiment relates to dogs. Kind of experiment: Example 2: success at learning the discrimination task (Test B) after twenty two days on the assigned diet. It counts as in vivo. The following applies: 0.3% amino acid added to control food product with approximately 2% leucine.
Description: The baseline learning capability of each dog was determined in a discrimination task (Test A) allowing the dogs to be divided into two groups, slow and fast learners. The slow and fast learners were randomly assigned to diet A, B, C or D. Dogs remained on their assigned diet for a period of twenty two days and their learning capability was then re evaluated with another discrimination task (Test B). The time to successfully learn the discrimination task, the total number of discrimination attempts, and the proportion of correct responses by each dog was recorded.
Test B was introduced in stages in a similar way to Test A. Again each dog was in the test area for up to an hour depending on the length of time that it took for the dog to complete the task.
Stage 1 The food preference test was repeated where necessary.
Stage 2 The dog was taken down the side of each box and encouraged to enter the food drop area from the rear by throwing food forward into the area.
Stage 3 The handler stood in front of one of the boxes and encouraged the dog to go down the side and into the box on its own. As its head reached the end of the entrance passage food was dropped by hand over the front panel into the area. This was repeated at random with both boxes.
Stage 4 The dog was placed centrally about 2.5 m back from the boxes and a red light was activated. The handler walked forward towards the light encouraging the dog to go forward along the side passage and into the box alone where a food pellet was dropped through the hatch as the dog's head reached the end of the entrance passage.
Stage 5 The dog was placed centrally approximately 3 m away from the equipment. A light was activated and the dog allowed time to scan the equipment. The dog was then released to make its own decision about which box to approach. If and when it entered the correct box a food pellet was dropped into the area.
These five introductory stages took, on average, 20 minutes, depending on the initial reaction of the dog to the surroundings. […]
As for `CC[C@H](C)[C@H](N)C(=O)O` [isoleucine], the “improvement in canine learning” value is on record as “Statistically significant improvements in canine learning were not demonstrated”. Regarding `CC(C)C[C@H](N)C(=O)O` [leucine], the “improvement in canine learning” value is on record as “measurable improvement in canine learning”. Take `N[C@@H](Cc1c[nH]c2ccccc12)C(=O)O` [tryptophan]: the “improvement in canine learning” value is on record as “Statistically significant improvements in canine learning were not demonstrated”.
